The source of these data is patent US6673902B2, “Cyclin D binding factor, and uses thereof” (St. Jude Children's Research Hospital, priority 1996, dated 2004).

In assay [1] the test system is BS2-driven reporter plasmid. The assay can be described thus: Transactivation of BS2-driven luciferase reporter in 293T cells. It counts as cell-based, human. The settings on record: 1 μg BS2-driven reporter. From the text: (§1) An XbaI-EcoRV fragment containing the entire DMP1 coding sequence is subcloned by blunt end ligation into a SpeI-XbaI fragment of the Rc/RSV vector (Invitrogen, La Jolla Calif.) to enable DMP1 expression in mammalian cells. 6×concatamerized BS1, 8×concatamerized, BS2, or 7×concatamerized M3 oligonucleotides (FIG. 5B) are inserted into the XhoI-SmaI sites of pGL2 (Pfornega) 5′ to a minimal simian virus 40 (SV40) early promoter driving firefly luciferase gene expression. The latter “reporter” plasmid (1 μg) together with increasing amounts of pRc/RSV-DMP1 expression plasmid compensated by decreasing quantities of control pRc/RSV DNA (total of both=2.5 μg) were transfected into 293T cells (1.5×10^6 cells per 60 mm diameter culture dish) by calcium phosphate precipitation (7). Two days later, cells were harvested, washed three times with PBS, and lysed in 1 ml of 25 mM glycylglycine (Sigma), pH 7.8, 15 mM MgSO4, 4 mM EDTA, 1 mM DTT, and 1% Triton X-100. After clearing by centrifugation, 50 μl aliquots were assayed diluted to 350 μl using 15 mM potassium phosphate buffer, pH 7.8, containing 15 mM MgSO4, 4 mM EGTA, 2 mM ATP, 1 mM DTT, and 67 uM luciferin (Sigma). Total light emission was measured for duplicate samples during the initial 20 seconds after luciferin injection with an Optocomp I luminometer (MGM Instruments, Hamden Conn.). […]
A general note: In a reporter assay the amount or activity of a reporter protein is the signal.

The subject of the next assay is BS1-driven reporter. Briefly: Transactivation of BS1-driven luciferase reporter in 293T cells. It counts as cell-based, human.
Text: as §1

Assay [2] concerns promoters lacking BS2 sites or containing Ets-specific M3 sites. The assay can be described thus: Transactivation of reporters lacking BS2 sites or containing M3 sites in 293T cells. It counts as cell-based, human.
Text: as §1

For the next assay, the system named is p19ARF. The assay can be described thus: Induction of endogenous p19ARF protein in retrovirus-infected MEFs. It counts as cell-based, mouse. The protocol:
Virus production and infection. Human kidney 293T cells were transfected with a helper ecotropic retrovirus plasmid defective in psi-2 packaging sequences, together with pSRα vectors containing murine DMP1, human c-Myc, human E2F-1, or human Ets1 cDNAs [Zindy, et al., Genes Dev. 12:2424-2433 (1998); Inoue and Sherr, J. Biol. Chem. 273:29188-29194 (1998)]. Viruses were harvested every 6 hours 24-72 hours after transfection, filtered and stored at 4° C. until used for infection [Zindy, et al., Genes Dev. 12:2424-2433 (1998)]. In order to construct a retroviral vector containing DMP1 linked to a mutated tamoxifen-responsive element of the estrogen receptor (DMP1-ER™), a 3′ 0.3 kb EcoNI DNA fragment of murine DMP1 cDNA was amplified by PCR using
RNA and protein expression. Quantitative RT-PCRs employed specific primers for murine ARF exon 1β (30 cycles) and for β-actin (20 cycles) used as a control [Zindy et al., Oncogene 15:203-211 (1997)]. […]
(§2) Based on the above observations, it was determined as to whether introduction of DMP1 would induce synthesis of the endogenous ARF protein in normal diploid fibroblast strains. […] Although the blot was normalized for protein input, the levels of p19^ARF induced by DMP1 were calculated to be 2-fold higher than those induced by Myc, because fewer cells were productively infected with the DMP1 virus in this experiment (see FIG. 15A).

For a further assay, the system named is ARF-null MEFs. The assay can be described thus: BrdU incorporation / cell cycle arrest in ARF-null MEFs. Type of assay: cell-based, mouse. The settings on record: retroviral infection. The protocol: BrdU incorporation and immunofluorescence. Wild-type or ARF-null MEFs (4×10^4 cells) were seeded on gelatin-coated coverslips 16 hours before virus infection. Cells were infected three times with empty vector, or vectors expressing murine DMP1, human c-Myc, human E2F-1, or human Ets1. Cells were labeled 36 hours after virus infection with bromodeoxyuridine (BrdU, Sigma) for 14 hours in complete medium. For pulse labeling, MEFs were treated with 2 μM4-HT for 36 hours and labeled with BrdU for three hours at different intervals throughout the inductive phase. Cells were fixed in ice-cold methanol-acetone (1:1) for 10 min at −20° C. and then were stained with affinity-purified antibodies to DMP1 (AF) [Hirai and Sherr, Mol. Cell. […]
as §2
(Uptake of a labelled nucleoside into DNA is a usual measure of proliferation.)

Take “DMP1: murine cyclin D-associated myb-like transcription factor, 761 amino acids, SEQ ID NO:1”: the “transactivation of luciferase activity relative to reporter plasmid alone” value in assay [1] was approximately 20 fold. Besides, the “activation of the BS1-driven reporter” value with BS1-driven reporter was found to be 7 fold. Further, in assay [2], the transactivation entry is recorded as “not observed”. The “levels of p19ARF induced relative to those induced by Myc” value in the assay on p19ARF (corrected for fraction of productively infected cells) amounted to 2 fold. Moreover, the ARF protein synthesis entry in the assay with p19ARF (early passage MEFs, retroviral infection) is recorded as “induced ARF protein synthesis”. Further, the cell cycle arrest result in the assay on ARF-null MEFs was “refractory”.
